Values of other authors, collected in patent US20160136093A9, “ENGINEERED AEROSOL PARTICLES, AND ASSOCIATED METHODS” (priority 2009, published 2016).

Tested on: non-replicating TB
Details: after one month, in vitro

Capreomycin
decrease in colony forming units (CFU): one to two
